From US20240075088A1, “BIOACTIVE EXTRACTION METHOD” (Performance Labs Pte. Ltd., priority 2022, published 2024)

Assay: DPPH radicals scavenging capacity assay
Format: biochemical
Method: DPPH radicals scavenging capacity assay: The ability of the plant extract to scavenge DPPH free radicals was assessed by using the method described by Takao et al. (Takao et al., 1994).
The stock solution of the plant extract was prepared in methanol to achieve the concentration of 2000 μg/ml. Further, two-fold dilutions were made to obtain concentrations of 1000, 500, 250, 125, 62.5, 31.25, 15.62 μg/ml. Diluted solutions of extract (2 ml each) were mixed with 2 ml of DPPH methanol solution (80 μg/ml). After 30 min in darkness at room temperature, the absorbance was read in a spectrophotometer at 517 nm. The control samples consisted of 2 ml of methanol added to 2 ml of DPPH solution. Caffeoylquinic acid and ascorbic acid was used as a positive control. The experiment was performed in triplicate. Scavenging activity is expressed as the inhibition percentage calculated using the following equation: Scavenging activity (%)=100×[Acontrol−Asample)/Acontrol)], where Acontrol is the absorbance of the control and Asample is the absorbance of the extract.
It was obtained from the graph of scavenging activity (%) versus concentration of samples. Low IC50 value indicates strong ability of the extract to act as DPPH scavenger.
To evaluate the antioxidant activity of different fractions, an assay method based on the reduction of DPPH was performed.

SMILES	DPPH antioxidant assay IC50 (concentration at which 50% of DPPH radicals were scavenged, DPPH methanol solution 80 μg/ml, 30 min in darkness, absorbance 517 nm, triplicate) [µg/mL]	antioxidant activity (DPPH), conclusion in words (inferred from comparison of the 20% and 70% ethanol fractions)
O=C1O[C@H]([C@@H](O)CO)C(O)=C1O [Ascorbic Acid, ascorbic acid]	59.4	–
Cn1c(=O)c2c(ncn2C)n(C)c1=O [caffeine]	–	did not contribute to antioxidant activity
